According to patent publication US9034865B2, “Pyrido [4,3-B] indole and pyrido [3,4-B] indole derivatives and methods of use” (Medivation Technologies, Inc., priority 2010, dated 2015):

Tests used:
[1] = target: T1, human recombinant histamine H1 receptor (Homo sapiens, UniProt P35367); assay: Histamine H1 radioligand binding ([3H]Pyrilamine); details: compound at 0.1 μM; 1.2 nM [3H]Pyrilamine; read-out: Binding data (Percentage inhibition) Histamine H1 (0.1 μM)
T1 construct: expressed in transfected cells; host or cells: CHO-K1
T1 sequence (P35367 whole entry): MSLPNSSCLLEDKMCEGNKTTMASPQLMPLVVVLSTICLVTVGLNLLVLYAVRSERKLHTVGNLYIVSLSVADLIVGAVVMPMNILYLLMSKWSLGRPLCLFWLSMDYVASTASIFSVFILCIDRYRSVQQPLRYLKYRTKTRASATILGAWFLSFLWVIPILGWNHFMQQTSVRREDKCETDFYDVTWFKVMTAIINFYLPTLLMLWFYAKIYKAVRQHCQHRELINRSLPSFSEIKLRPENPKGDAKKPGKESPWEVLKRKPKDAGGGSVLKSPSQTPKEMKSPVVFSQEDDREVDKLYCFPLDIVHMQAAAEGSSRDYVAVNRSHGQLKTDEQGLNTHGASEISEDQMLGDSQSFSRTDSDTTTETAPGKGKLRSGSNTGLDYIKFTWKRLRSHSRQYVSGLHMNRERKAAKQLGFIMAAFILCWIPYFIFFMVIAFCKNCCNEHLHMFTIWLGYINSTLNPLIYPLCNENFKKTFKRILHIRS
Procedure: To evaluate in radioligand binding assays the activity of compounds of the invention, human recombinant histamine H1 receptor expressed in Chinese hamster ovary (CHO) K1 cells (De Backer, M. et al, Biochem. Biophys. Res. Comm. 197(3):1601, 1993) in a modified Tris-HCl buffer (50 mM Tris-HCl, pH 7.4, 2 mM MgCl2, 100 mM NaCl, 250 mM Sucrose) was used. Compounds of the invention were incubated with 1.2 nM [^3H]Pyrilamine for 180 min at 25° C. Non-specific binding was estimated in the presence of 1 μM Pyrilamine. Receptor proteins were filtered and washed, the filters were then counted to determine [^3H]Pyrilamine specifically bound. Compounds were screened at 1 μM or lower, using 1% DMSO as vehicle. Biochemical assay results are presented as the percent inhibition of specific binding in Table 2.

[2] = target: T2, human recombinant serotonin (5-Hydroxytryptamine) 5-HT2A receptor (Homo sapiens, UniProt P28223); assay: Serotonin 5-HT2A radioligand binding ([3H]Ketanserin); details: compound at 0.1 μM; read-out: Percentage inhibition of ligand binding, Serotonin (0.1 μM) 5-HT2A
T2 construct: expressed in transfected cells; host or cells: CHO-K1
T2 sequence (P28223 whole entry): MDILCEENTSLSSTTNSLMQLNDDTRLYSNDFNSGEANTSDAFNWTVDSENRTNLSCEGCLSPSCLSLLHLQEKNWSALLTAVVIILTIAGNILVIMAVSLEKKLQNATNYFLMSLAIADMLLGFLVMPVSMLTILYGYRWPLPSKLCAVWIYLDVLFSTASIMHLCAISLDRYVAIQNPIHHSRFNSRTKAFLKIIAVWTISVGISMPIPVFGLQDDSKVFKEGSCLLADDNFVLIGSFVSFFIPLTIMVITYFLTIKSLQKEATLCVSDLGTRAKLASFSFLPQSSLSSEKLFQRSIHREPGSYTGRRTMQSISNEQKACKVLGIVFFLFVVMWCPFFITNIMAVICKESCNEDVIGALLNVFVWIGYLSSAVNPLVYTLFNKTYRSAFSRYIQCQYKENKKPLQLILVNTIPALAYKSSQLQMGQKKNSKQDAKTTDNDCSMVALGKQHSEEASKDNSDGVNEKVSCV
Procedure: To evaluate in radioligand binding assays the activity of compounds of the invention, human recombinant serotonin (5-Hydroxytryptamine) 5-HT2A receptor expressed in Chinese hamster ovary (CHO) K1 cells (Bonhaus, D. et al, Br. J. Pharmacol. 115:622, 1995; Saucier, C. et al, J. Neurochem. 68:1998, 1997) in a 50 mM Tris-HCl buffer, pH 7.4, was used. Compounds of the invention were incubated with 0.5 nM [^3H]Ketanserin for 60 min at 25° C. Non-specific binding was estimated in the presence of 1 μM Mianserin. Receptor proteins were filtered and washed, the filters were then counted to determine [^3H]Ketanserin specifically bound. Compounds were screened at 1 μM or lower, using 1% DMSO as vehicle. Biochemical assay results are presented as the percent inhibition of specific binding in Table 4.

[3] = target: T3, human recombinant serotonin (5-Hydroxytryptamine) 5-HT2C receptor (Homo sapiens, UniProt P28335); assay: Serotonin 5-HT2C radioligand binding ([3H]Mesulergine); details: compound at 0.1 μM; read-out: Percentage inhibition of ligand binding, Serotonin (0.1 μM) 5-HT2C
T3 construct: expressed in transfected cells; host or cells: CHO-K1
T3 sequence (P28335 33-458): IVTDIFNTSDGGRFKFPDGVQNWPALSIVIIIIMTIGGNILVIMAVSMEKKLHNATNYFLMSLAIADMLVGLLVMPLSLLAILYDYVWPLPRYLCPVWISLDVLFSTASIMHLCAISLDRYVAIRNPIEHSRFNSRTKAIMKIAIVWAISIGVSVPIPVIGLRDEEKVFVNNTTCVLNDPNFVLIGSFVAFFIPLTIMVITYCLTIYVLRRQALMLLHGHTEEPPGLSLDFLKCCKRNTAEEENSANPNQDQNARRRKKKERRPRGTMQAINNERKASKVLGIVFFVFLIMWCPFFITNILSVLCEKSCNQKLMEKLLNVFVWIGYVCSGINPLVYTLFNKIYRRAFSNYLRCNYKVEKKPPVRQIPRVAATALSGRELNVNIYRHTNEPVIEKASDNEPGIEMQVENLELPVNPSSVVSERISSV
Procedure: To evaluate in radioligand binding assays the activity of compounds of the invention, human recombinant serotonin (5-Hydroxytryptamine) 5-HT2C receptor expressed in Chinese hamster ovary (CHO) K1 cells (Wolf, W. et al, J. Neurochem. 69:1449, 1997) in a modified Tris-HCl buffer (50 mM Tris-HCl, pH 7.4, 0.1% Ascorbic Acid, 10 μM Pargyline) was used. Compounds of the invention were incubated with 1 nM [^3H]Mesulergine for 60 min at 25° C. Non-specific binding was estimated in the presence of 1 μM Mianserin. Receptor proteins were filtered and washed, the filters were then counted to determine [^3H]Mesulergine specifically bound. Compounds were screened at 1 μM or lower, using 1% DMSO as vehicle. Biochemical assay results are presented as the percent inhibition of specific binding in Table 4.

[4] = target: T4, human recombinant serotonin (5-Hydroxytryptamine) 5-HT5A receptor (Homo sapiens, UniProt P47898); assay: Serotonin 5-HT5A radioligand binding ([3H]LSD); details: compound at 0.1 μM; read-out: Percentage inhibition of ligand binding, Serotonin (0.1 μM) 5-HT5A
T4 construct: expressed in transfected cells; host or cells: CHO-K1
T4 sequence (P47898 whole entry): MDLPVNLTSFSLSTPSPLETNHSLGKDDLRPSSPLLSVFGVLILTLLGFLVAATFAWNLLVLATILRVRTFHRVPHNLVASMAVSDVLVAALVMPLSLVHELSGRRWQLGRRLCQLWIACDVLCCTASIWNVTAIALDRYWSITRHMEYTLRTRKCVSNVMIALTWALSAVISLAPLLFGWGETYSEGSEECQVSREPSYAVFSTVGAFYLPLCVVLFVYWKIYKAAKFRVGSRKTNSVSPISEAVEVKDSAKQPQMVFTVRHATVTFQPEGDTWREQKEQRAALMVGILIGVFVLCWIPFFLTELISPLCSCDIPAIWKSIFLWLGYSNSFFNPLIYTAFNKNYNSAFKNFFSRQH
Procedure: To evaluate in radioligand binding assays the activity of compounds of the invention, human recombinant serotonin (5-Hydroxytryptamine) 5-HT5A receptor expressed in Chinese hamster ovary (CHO) K1 cells (Rees, S. et al, FEBS Lett. 355:242, 1994) in a modified Tris-HCl buffer (50 mM Tris-HCl, pH 7.4, 10 mM MgCl2, 0.5 mM EDTA) was used. Compounds of the invention were incubated with 1.7 nM [^3H]Lysergic acid diethylamide (LSD) for 60 min at 37° C. Non-specific binding was estimated in the presence of 100 μM Serotonin (5-HT). Receptor proteins were filtered and washed, the filters were counted to determine [^3H]LSD specifically bound. Compounds were screened at 1 μM or lower, using 1% DMSO as vehicle. Biochemical assay results are presented as the percent inhibition of specific binding in Table 4.

[5] = target: T5, human recombinant serotonin (5-Hydroxytryptamine) 5-HT6 receptor (Homo sapiens, UniProt P50406); assay: Serotonin 5-HT6 radioligand binding ([3H]LSD); details: compound at 0.1 μM; read-out: Percentage inhibition of ligand binding, Serotonin (0.1 μM) 5-HT6
T5 construct: expressed in transfected cells; host or cells: HeLa
T5 sequence (P50406 whole entry): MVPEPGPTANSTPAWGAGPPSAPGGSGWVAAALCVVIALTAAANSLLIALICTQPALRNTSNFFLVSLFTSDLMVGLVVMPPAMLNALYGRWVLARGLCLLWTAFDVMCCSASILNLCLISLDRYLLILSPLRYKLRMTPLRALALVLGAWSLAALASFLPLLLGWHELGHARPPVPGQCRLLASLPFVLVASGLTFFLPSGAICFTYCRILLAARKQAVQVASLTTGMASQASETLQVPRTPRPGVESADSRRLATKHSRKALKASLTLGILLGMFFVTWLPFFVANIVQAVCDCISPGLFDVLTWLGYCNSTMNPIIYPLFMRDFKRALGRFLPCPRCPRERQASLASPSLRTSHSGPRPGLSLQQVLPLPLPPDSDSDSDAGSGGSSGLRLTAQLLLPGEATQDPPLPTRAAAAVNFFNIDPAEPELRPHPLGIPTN
Procedure: To evaluate in radioligand binding assays the activity of compounds of the invention, human recombinant serotonin (5-Hydroxytryptamine) 5-HT6 receptor expressed in human HeLa cells (Monsma, F. Jr. et al, Mol. Pharmacol. 43:320, 1993) in a modified Tris-HCl buffer (50 mM Tris-HCl, pH 7.4, 150 mM NaCl, 2 mM Ascorbic Acid, 0.001% BSA) was used. Compounds of the invention were incubated with 1.5 nM [3H]Lysergic acid diethylamide (LSD) for 120 min at 37° C. Non-specific binding was estimated in the presence of 5 μM Serotonin (5-HT). Receptor proteins were filtered and washed, the filters were then counted to determine [3H]LSD specifically bound. Compounds were screened at 1 μM or lower, using 1% DMSO as vehicle. Biochemical assay results are presented as the percent inhibition of specific binding in Table 4.

Cc1cc(-c2ccc(F)cc2)c2c(c1)c1c(n2C)CCN(C)C1 [Compound 7]
inhibition at 0.1 µM [1]: 6%
inhibition at 0.1 µM [2]: 6%
inhibition at 0.1 µM [3]: 36%
inhibition at 0.1 µM [4]: -4%
inhibition at 0.1 µM [5]: 10%

Cc1cc(C#Cc2cccs2)c2[nH]c3c(c2c1)CN(C)CC3 [Compound 8]
inhibition at 0.1 µM [1]: -3%
inhibition at 0.1 µM [2]: 27%
inhibition at 0.1 µM [3]: 4%
inhibition at 0.1 µM [4]: -14%
inhibition at 0.1 µM [5]: 15%

Cc1cc(-c2ccncc2)c2c(c1)c1c(n2C)CCN(C)C1 [Compound 9]
inhibition at 0.1 µM [1]: 0%
inhibition at 0.1 µM [2]: 5%
inhibition at 0.1 µM [3]: 9%
inhibition at 0.1 µM [4]: 6%
inhibition at 0.1 µM [5]: -2%

C#Cc1cc(C)cc2c3c(n(C)c12)CCN(C)C3 [Compound 10, 6-Ethynyl-2,3,4,5-tetrahydro-2,5,8-trimethyl-1H-pyrido[4,3-b]indole]
inhibition at 0.1 µM [1]: 5%
inhibition at 0.1 µM [2]: 37%
inhibition at 0.1 µM [3]: 55%
inhibition at 0.1 µM [4]: 1%
inhibition at 0.1 µM [5]: 18%

C/C(=C\c1cc(C)cc2c3c(n(C)c12)CCN(C)C3)c1ccncc1 [Compound 11]
inhibition at 0.1 µM [1]: -3%
inhibition at 0.1 µM [2]: 13%
inhibition at 0.1 µM [3]: -11%
inhibition at 0.1 µM [4]: -19%
inhibition at 0.1 µM [5]: -6%

Cc1cc(C#Cc2ccc(C)nc2)c2c(c1)c1c(n2C)CCN(C)C1 [Compound 12, 2,3,4,5-tetrahydro-2,5,8-trimethyl-6-(2-(6-methylpyridin-3-yl)ethynyl)-1H-pyrido[4,3-b]indole]
inhibition at 0.1 µM [1]: -14%
inhibition at 0.1 µM [2]: 23%
inhibition at 0.1 µM [3]: 3%
inhibition at 0.1 µM [4]: -21%
inhibition at 0.1 µM [5]: -3%

Cc1cc(CCc2ccc(C)nc2)c2c(c1)c1c(n2C)CCN(C)C1 [Compound 13]
inhibition at 0.1 µM [1]: 28%
inhibition at 0.1 µM [2]: 13%
inhibition at 0.1 µM [3]: -11%
inhibition at 0.1 µM [4]: 15%
inhibition at 0.1 µM [5]: 2%

Cc1cc(/C=C/c2ccc(C)nc2)c2c(c1)c1c(n2C)CCN(C)C1 [Compound 14]
inhibition at 0.1 µM [1]: 25%
inhibition at 0.1 µM [2]: -7%
inhibition at 0.1 µM [3]: 1%
inhibition at 0.1 µM [4]: -7%
inhibition at 0.1 µM [5]: 10%

C/C(=C\c1cc(C)cc2c3c(n(C)c12)CCN(C)C3)c1ccc(C)nc1 [Compound 15]
inhibition at 0.1 µM [1]: 2%
inhibition at 0.1 µM [2]: 1%
inhibition at 0.1 µM [3]: 28%
inhibition at 0.1 µM [4]: 11%
inhibition at 0.1 µM [5]: 11%

Cc1cc(C#Cc2nccs2)c2[nH]c3c(c2c1)CN(C)CC3 [Compound 16]
inhibition at 0.1 µM [1]: 9%
inhibition at 0.1 µM [2]: 21%
inhibition at 0.1 µM [3]: 20%
inhibition at 0.1 µM [4]: -2%
inhibition at 0.1 µM [5]: 14%

Cc1cc(C#Cc2ccncc2)c2c(c1)c1c(n2C)CCN(C)C1 [Compound 17]
inhibition at 0.1 µM [1]: 39%
inhibition at 0.1 µM [2]: 24%
inhibition at 0.1 µM [3]: 19%
inhibition at 0.1 µM [4]: 15%
inhibition at 0.1 µM [5]: 5%

Cc1ccc(C#Cc2cc(Cl)cc3c4c(n(C)c23)CCN(C)C4)cn1 [Compound 18]
inhibition at 0.1 µM [1]: 12%
inhibition at 0.1 µM [2]: 80%
inhibition at 0.1 µM [3]: 27%
inhibition at 0.1 µM [4]: 17%
inhibition at 0.1 µM [5]: 6%
